The species named for experiment [1] is Rattus norvegicus. Nature of the experiment: Effective concentration required for relaxation of rat aortic rings. The class given is functional. The conditions noted are these: Aorta.
The species named for experiment [2] is Rattus norvegicus. Nature of the experiment: Percentage Inhibition of relaxation of phenylephrine-induced tone in rat aortic smooth muscle at ~10000 nM. The class given is functional, Aorta.
Experiment [3] is filed under the species Rattus norvegicus. Kind of experiment: Percentage Inhibition of relaxation of phenylephrine-induced tone in rat aortic smooth muscle at ~1000 nM. The class given is functional, Aorta.
The species named for experiment [4] is Rattus norvegicus. Nature of the experiment: Percentage Inhibition of relaxation of phenylephrine-induced tone in rat aortic smooth muscle at ~10 nM. The class given is functional, Aorta.
For experiment [5], the species on record is Rattus norvegicus. Nature of the experiment: Percentage Inhibition of relaxation of phenylephrine-induced tone in rat aortic smooth muscle at ~500 nM. The experiment is classed as functional, Aorta.
The species entered for experiment [6] is Rattus norvegicus. Nature of the experiment: Percentage Inhibition of relaxation of phenylephrine-induced tone in rat aortic smooth muscle at ~100 nM. The class given is functional, Aorta.
The species entered for experiment [7] is Rattus norvegicus. Kind of experiment: Percentage Inhibition of relaxation of phenylephrine-induced tone in rat aortic smooth muscle at ~5000 nM. The class given is functional, Aorta.
Experiment [8] is filed under the species Rattus norvegicus. Nature of the experiment: Percentage Inhibition of relaxation of phenylephrine-induced tone in rat aortic smooth muscle at ~600 nM. The class given is functional, Aorta.

In general, EC50 refers to the concentration giving half of the maximal effect. A higher EC50 goes with lower potency in that assay. The term Inhibition denotes the change of the read-out against control, counted positive when it falls.

The compound `N[C@H](CSN=O)C(=O)O` yielded a concentration giving a half-maximal response (EC50) in the experiment listed under Rattus norvegicus [1] of 2.1 nM.

In turn, `CC(=O)N[C@H](C(=O)O)C(C)(C)SN=O` registered an EC50 in the experiment listed under Rattus norvegicus [1] of 476 nM. This EC50 lies about 230-fold higher than the previous one.

`N[C@@H](CCC(=O)N[C@@H](CSN=O)C(=O)NCC(=O)O)C(=O)O` [S-NITROSOGLUTATHIONE]: the EC50 in the experiment listed under Rattus norvegicus [1] worked out at 108 nM. In addition, the Inhibition in the experiment listed under Rattus norvegicus [2] is listed as 100%; in the experiment filed under Rattus norvegicus [3] it was 90%; in the experiment listed under Rattus norvegicus [4], 20%; in the experiment filed under Rattus norvegicus [5], 80%; in the experiment filed under Rattus norvegicus [6], 50%.

On to `CC(=O)N[C@@H](C(=O)O)C(C)(C)SN=O`, for which the EC50 in the experiment listed under Rattus norvegicus [1] stood at 492 nM. In other words, the sub-micromolar range.

Compound `N[C@@H](CSN=O)C(=O)O` showed a concentration giving a half-maximal response (EC50) in the experiment listed under Rattus norvegicus [1] of 2 nM.

For `N[C@H](CCC(=O)N[C@H](CSN=O)C(=O)NCC(=O)O)C(=O)O`, the response in the experiment listed under Rattus norvegicus [1] was half-maximal at 290 nM (EC50). Further, the Inhibition in the experiment listed under Rattus norvegicus [7] is 100%; in the experiment filed under Rattus norvegicus [3], 80%; in the experiment listed under Rattus norvegicus [8], 50%; in the experiment filed under Rattus norvegicus [6] it was 25%.

(Values after ChEMBL document CHEMBL1133439, “Synthesis and biological evaluation of enantiopure thionitrites: the solid-phase synthesis and nitrosation of D-glutathione as a molecular probe” (Bioorg Med Chem Lett, 2000).)
